Consider 17 compounds from ChEMBL document CHEMBL3621162, “Virtual Screening and Biological Validation of Novel Influenza Virus PA Endonuclease Inhibitors” (ACS Med Chem Lett, 2015).

For data set [1], the target named is Polymerase acidic protein (Influenza A virus (strain A/X-31 H3N2), UniProt Q9IQ47). Description: Inhibition of recombinant Influenza virus A/X-31 N-terminal RdRp PA subunit (1 to 217) expressed in Escherichia coli using single-stranded circular DNA plasmid M13mp18 as substrate after 2 hrs by agarose gel electrophoresis. More on the design: species or system Influenza A virus (A/X-31(H3N2)).

The test system of data set [2] is Influenza A virus. Description: Antiviral activity against Influenza A virus (A/PR/8/1934(H1N1)) infected in HEK293T cells assessed as reduction in viral RNP reconstitution measured at 24 hrs by luciferase reporter gene assay. It counts as functional, organism-based. The settings on record: A/Puerto Rico/8/1934(H1N1), HEK-293T. In general terms: In a reporter assay the amount or activity of a reporter protein is the signal.

Data set [3] concerns Influenza A virus. Nature of the data set: Antiviral activity against Influenza A virus (A/PR/8/1934(H1N1)) infected in MDCK cells assessed as 2-log10 reduction in viral RNA copy number after 24 hrs by quantitative RT-PCR analysis. It counts as functional. The settings on record: A/Puerto Rico/8/1934(H1N1).
The nature of data set [4]: Cytotoxicity against HEK293T cells assessed as cell viability measured at 24 hrs by MTS assay. The settings on record: human. It counts as cell-based, HEK-293T. Background: Tetrazolium dyes change colour on reduction, which living cells bring about.
The nature of data set [5]: Cytotoxicity against MDCK cells assessed as cell viability measured at 24 hrs by MTS assay. It counts as cell-based, Canis lupus familiaris. The settings on record: dog.
For data set [6], the system named is Influenza A virus. Description: Antiviral activity against Influenza A virus (A/PR/8/1934(H1N1)) infected in MDCK cells assessed as 1-log10 reduction in viral RNA copy number after 24 hrs by quantitative RT-PCR analysis. The data set is classed as functional, organism-based. The settings on record: A/Puerto Rico/8/1934(H1N1).
Data set [7] concerns Influenza A virus. Nature of the data set: Potency index, ratio of ribavirin EC90 to compound EC90 for Influenza A virus (A/PR/8/1934(H1N1)) infected in MDCK cells. It counts as functional, A/Puerto Rico/8/1934(H1N1).
In data set [8] the test system is Influenza A virus. Description: Potency index, ratio of ribavirin EC99 to compound EC99 for Influenza A virus (A/PR/8/1934(H1N1)) infected in MDCK cells. The data set is classed as functional, A/Puerto Rico/8/1934(H1N1).

Structures are written as SMILES.

For the compound `O=C(O)CCc1nnc(SCc2ccc(Cl)cc2)nc1O`, in data set [1], the IC50 – broadly, the concentration that gives 50% inhibition – was above 500 µM.
Turning to `O=C(O)c1nccnc1C(=O)Nc1nc(-c2cccs2)n[nH]1`, the IC50 in data set [1] is above 500 µM.
As to `O=C(NCCCCNC(=O)c1cc2cc(O)c(O)cc2[nH]1)c1cc2cc(O)c(O)cc2[nH]1`, the IC50 in data set [1] came out at 7 µM. Besides, the EC50 (in general, the concentration that produces a half-maximal response) in the data set with Influenza A virus [2] was found to be 24 µM; in the data set on Influenza A virus [6] it was 6.3 µM. In addition, the EC99 (usually the point of the concentration-response curve where the effect stands at 99%) with Influenza A virus [3] turned out to be 12 µM. For the same compound, the CC50 at 24 h in data set [4] and in data set [5] was above 200 µM in each case.
For `Cc1cc(NC(=O)c2c(O)nc(O)[nH]c2=O)no1`, the IC50 in data set [1] was above 500 µM.
The same measure, in the same setting: in the case of `O=C(O)CCc1nn2c(nc1O)nc1ccccc12` it was above 500 µM.
In the case of `NC(=O)c1ncn([C@@H]2O[C@H](CO)[C@@H](O)[C@H]2O)n1` [RIBAVIRIN], the EC50 in the data set on Influenza A virus [2] was 8.4 µM. In addition, the EC99 in the data set on Influenza A virus [3] was 11 µM. For the same compound, the CC50 at 24 h in data set [4] and in data set [5] was above 200 µM each time.
Take `O=C(NCCCNC(=O)c1cc2cc(O)c(O)cc2[nH]1)c1cc2ccccc2[nH]1`: the IC50 in data set [1] was 65 µM. Moreover, the 50% effective concentration (EC50) was 64 µM in the data set on Influenza A virus [2] and 32 µM in the data set on Influenza A virus [6]. In the data set on Influenza A virus [3], the EC99 came out at 73 µM. The CC50 at 24 h in data set [4] and in data set [5] was above 200 µM throughout.
Take `Cc1nc(SCc2ccccc2)nc(O)c1CC(=O)O`: the IC50 in data set [1] is above 500 µM.
Regarding `O=C(NCCc1ccc(O)c(O)c1)c1cc2cc(O)c(O)cc2[nH]1`, the IC50 in data set [1] was 0.94 µM. Also, the Ratio in the data set on Influenza A virus [7] and in the data set on Influenza A virus [8] was 2 in each case. The results for the EC50 in the data set on Influenza A virus [2] and in the data set on Influenza A virus [6] were 16 µM and 3.2 µM, respectively. In addition, the EC99 with Influenza A virus [3] was found to be 5.7 µM. In addition, the CC50 – broadly, the concentration at which the toxic effect on the cells reaches its halfway point – at 24 h in data set [4] is 110 µM; in data set [5], at least 50 µM.
Turning to `O=C(O)/C(O)=C/C(=O)C1(Cc2ccc(Cl)cc2)CCN(Cc2ccccc2)CC1`, in data set [1], the IC50 amounted to 0.48 µM. Besides, the EC50 was determined as 3.4 µM with Influenza A virus [2] and 5.4 µM in the data set on Influenza A virus [6]. Further, in the data set on Influenza A virus [3], the EC99 came to 8.4 µM. Further, the results for the CC50 at 24 h in data set [4] and in data set [5] were above 100 µM and 181 µM, respectively.
For the compound `CCOC(=O)c1c(O)c2cc(OC)ccc2n(C)c1=O`, the IC50 in data set [1] was above 500 µM.
`CNC(=O)c1cccc(Nc2nc(O)nc(O)c2C#N)c1`: the IC50 in data set [1] is above 500 µM.
Same read-out and setting: the value for `COc1cc2nc(N3CCOCC3)nc(N)c2cc1OC` was above 500 µM.
On the same count and under the same terms, the value for `O=C(O)CC1C(=O)NCCN1CCCc1ccccc1` (configuration not stated) was above 500 µM; that for `O=C(CC(=O)Nc1ccccc1)NNc1ccc([N+](=O)[O-])cc1` was above 500 µM.
Still for that read-out and setting: the value for `O=C(O)C1C(C(=O)O)C(C(=O)O)C(C(=O)O)C(C(=O)O)C1C(=O)O` (configuration not stated) was above 500 µM; that for `Cc1cc(=O)oc2n[nH]c(C)c12` was above 500 µM.
